Test results as given in US7052865B1, “Identification of genes having a role in the presentation of diabetic nephropathy” (University College Dublin, National University of Ireland, …, priority 1999, dated 2006).

How the values were obtained:
[1] = test system: CTGF; assay: CTGF mRNA levels in mesangial cells by Northern Blot, Phosphor Imager quantification; type: cell-based, human
From the text: CTGF, is a 38 kD cysteine-rich secreted peptide known to modulate ECM production in some extrarenal cell types. In Example 1, SSH analysis identified a cDNA fragment of 250 bp which was identical to bases 814-1061 of the human CTGF cDNA. Induction of CTGF mRNA expression in primary human mesangial cells cultured in high glucose was investigated by Northern Blotting as shown in FIG. 1.
A 2.4 kb band was detected following hybridisation with the CTGF probe. All of the values were normalised to GAPDH levels and the results are representative of three independent experiments.
To assess the role of TGF-β1 as a stimulus for CTGF expression in response to high glucose, cells were incubated in either 5 mM glucose or 30 mM glucose plus 1 μl/ml anti-TGF-β1 antibody for seven days with three changes of medium. Cells were serum starved for 24 hr in RPMI 1640 and 0.5% FBS. 10 ng/ml TGF-β1 Calbiochem) or 10 ng/ml TGF-β1 preadsorbed with 1 μg/ml neutralising anti-TGF-β1 polyclonal antibody were subsequently added for 24 hr.
The role of PKC on CTGF expression in response to high glucose was investigated by culturing the mesangial cells in either 5 mM, 30 mM glucose or 30 mM glucose and the PKC inhibitor GF 102903X.
FIG. 7 is an autoradiograph of CTGF mRNA levels analysed by Northern Blot and depicts the results obtained when mesangial cells were exposed to TGF-β1 (10 ng/ml) for 24 hr in the presence (lane 3) and absence (lane 2) of anti-TGF-β1 neutralising antibody (1 μg/ml). Cells cultured in RPMI 1640 and 0.5% FBS for 24 hr served as control (lane 1). A 2.4 kb band was detected following hybridisation to the CTGF probe. The blot was stripped and reprobed with GAPDH. The relative amount of CTGF mRNA as estimated by Phosphor Imager quantification (FIG. 8). Values were normalised to GAPDH levels and the results are representative of two independent experiments.
(§1) FIG. 9 is an autoradiograph of CTGF mRNA levels analysed by Northern Blot and depicts the results obtained when mesangial cells were exposed to 5 mM glucose (lane 1), 30 mM glucose (lane 2) and 30 mM glucose in the presence of anti-TGF-β1 neutralising antibodies (1 μg/ml) (lane 3) for seven days. A 2.4 kb band was detected following hybridisation to the CTGF probe. The blot was stripped and probed with GAPDH. The relative amount of CTGF MRNA as estimated by Phosphor Imager quantification (FIG. 10). […]
as §1, with “11” for “9”, “PKC inhibitor GF102903X (10 μM)” for “the presence of anti-TGF-β1 neutralising antibodies (1 μg/ml)”, “four” for “seven”, “The blot was stripped and probed with GAPDH.” left out, “rnRNA” for “MRNA”, “12).” for “10).”

[2] = test system: primary human mesangial cells; assay: Northern Blot of genes differentially induced in mesangial cells cultured in high glucose or mannitol (Table 1); type: cell-based; set-up: key to Differential Expression of IHG-1 mRNA: *: detected in mesangial cells cultured in 5 mM glucose+25 mM mannitol and 30 mM glucose, but not in 5 mM glucose; conditions: 25 mM mannitol + 5 mM glucose, relative to 5 mM glucose
Experimental: Primary human mesangial cells were cultured as previously reported (Brady, H. R., et al. (1992) Kidney Int. 42, 480-487 and Denton, M. D., et al. (1991) Am. J. Physiol. 261, F1071-F1079). Cells (passage 7-11) were maintained in medium (Clonetics) containing either 5 mM or 30 mM D-glucose for 7 days. Culture medium was replenished three times during this period to maintain glucose levels in the desired range. To control for the effects of hyperosmolarity, mesangial cells were cultured in media containing 5 mM glucose supplemented with 25 mM mannitol. […] Northern Blots performed using formaldehyde denaturation according to standard protocols and quantitated using a Phosphor Imager (Biorad) confirmed differential expression of fifteen of the sixteen subcloned fragments as indicated in Table 1. ^c refers to the differential expression of each gene based on Northern Blot analysis of primary human mesangial cells cultured under indicated conditions relative to expression in cells cultured in 5 mM glucose. Values were obtained by Phosphor-Imaging and were normalised by comparison with glyceraldehyde-3-phosphate dehydrogenase (GAPDH) (*, detected in mesangial cells cultured in 5 mM glucose+25 mM mannitol and 30 mM glucose, but not in 5 mM glucose, fold expression is degree of expression relative to that found in 5 mM glucose). Within a diabetic milieu, high glucose levels may perturb cellular function through glucose-specific actions or by increasing the osmolarity of extracellular fluids. The role of hyperosmolarity as a mediator of gene induction by high glucose was assessed by comparing mRNA levels, as determined by Northern Blot, in cells cultured in either 30 mM glucose or in 5 mM glucose supplemented with 25 mM mannitol. […] High glucose and mannitol-induced hyperosmolarity afforded equivalent induction of the other products.

[3] = test system: gremlin; assay: Gremlin mRNA levels in mesangial cells by Northern Blot; type: cell-based; conditions: human recombinant TGF-β1 10 ng/ml, 24 h, serum restricted mesangial cells
Experimental: A) Primary cultures of human mesangial cells were propagated as described in Example 1, except that the medium was supplemented with 5% FBS. Treatment of cultures with glucose was carried out as described in Example 1. […]
Northern Blot analysis as described further below was performed on RNA extracted from mesangial cells grown in either 5 mM (‘normal’) or 30 mM (‘high’) glucose using the ORF of gremlin and IHG-2 probes. Both probes detected a 2-fold increase in gene expression under high glucose conditions as depicted in FIG. 16.
Northern Blots were performed using formaldehyde denaturation according to standard protocols and quantitated using a phosphorimager (Biorad). PCR products used to generate the probes for northern analysis were amplified using primers for the open reading frame (ORF) of gremlin (sense: […] (SEQ ID NO: 17); antisense […] (SEQ ID NO: 18)), and for IHG-2 (sense: […] (SEQ ID NO 19); antisense: […] (SEQ ID NO: 20)). Fibronectin and GAPDH probes were generated as described in Example 2
As indicated above, both high ambient glucose concentrations and cyclic mechanical strain provoke TGF-β1 production by mesangial cells in vitro and TGF-β1 appears to be a major stimulus for mesangial matrix accumulation in diabetic glomeruli in vivo. […]

[4] = test system: mesangial cells; assay: Effect of rhCTGF on mesangial cell matrix production (RT-PCR); type: cell-based, human; conditions: rhCTGF 8 ng/ml, 24 hr, serum starved mesangial cells
Experimental: To investigate the direct effects of CTGF up-regulation on matrix production, in particular the effect on collagens I and IV and fibronectin, mesangial cells were incubated with recombinant CTGF protein.
Mesangial cells were serum starved for 24 hr in RPMI 1640 medium supplemented with 0.5 % fetal bovine serum (FBS) and then exposed to rhCTGF (8 ng/ml) (a generous gift from Dr. Gary Grotendorst) for 24 hr (Kreisberg, J. I. and Ayo, S. H. (1993). Kidney Int. 43, 109-113). Total RNA was extracted and chromosomal DNA was removed using DNase 1 (Gibco-BRL). Equal amounts of cDNA were subsequently amplified by PCR using specific primers for GAPDH (Gen/EMBL accession no. AJ005371, sense: […] (SEQ ID NO: 7); antisense: […] (SEQ ID NO: 8), Collagen I (Gen/EMBL accession no. X55525, sense: […] (SEQ ID NO: 9); antisense: […] (SEQ ID NO: 10)), Collagen IV (Gen/EMBL accession no. M11315, sense: […] (SEQ ID NO: 11); antisense: […] (SEQ ID NO: 12) and fibronectin (Gen/EMBL accession no. X0276 1, sense: CGAAATCACAGCCAGTAG (SEQ ID NO. 13), antisense: ATCACATCCACACGGTAG (SEQ ID NO: 14)).
FIG. 3 depicts ethidium-stained panels of a 2% (w/v) agarose gel containing 10 μl of each PCR reaction after electrophoresis.

Molecule: CN(C)CCCn1cc(C2=C(c3c[nH]c4ccccc34)C(=O)NC2=O)c2ccccc21 [GF102903X]
- effect on high glucose-induced CTGF expression ([1]; 30 mM glucose, four days, inhibitor 10 μM): partial inhibition
- effect on TGF-β1-induced CTGF expression ([1]; TGF-β1 10 ng/ml, 24 hr, antibody 1 μg/ml, GF102903X data not shown): without effect

Molecule: OC[C@@H](O)[C@@H](O)[C@H](O)[C@H](O)CO [mannitol]
- Differential Expression of IHG-1 mRNA [2]: *
- Differential Expression of ARP3 mRNA ([2]; normalised to GAPDH): 1.0-fold
- Differential Expression of CAP mRNA ([2]; normalised to GAPDH): 1.7-fold
- Differential Expression of CTGF mRNA ([2]; normalised to GAPDH): 1.5-fold
- Differential Expression of Caldesmon mRNA ([2]; normalised to GAPDH): 2.8-fold
- Differential Expression of Fibronectin mRNA ([2]; normalised to GAPDH): 1.5-fold
- Differential Expression of IHG-2 mRNA ([2]; normalised to GAPDH): 2.0-fold
- Differential Expression of MRLC mRNA ([2]; normalised to GAPDH): 1.6-fold
- Differential Expression of PAI-1 mRNA (2.0 kb) ([2]; normalised to GAPDH): 1.0-fold
- Differential Expression of PAI-1 mRNA (3.0 kb) ([2]; normalised to GAPDH): 2.0-fold
- Differential Expression of Profilin mRNA ([2]; normalised to GAPDH): 2.3-fold
- Differential Expression of RBM3 mRNA ([2]; normalised to GAPDH): 1.4-fold
- Differential Expression of T-plastin mRNA ([2]; normalised to GAPDH): 1.8-fold
- Differential Expression of TCTP mRNA ([2]; normalised to GAPDH): 2.5-fold
- Differential Expression of Thrombospondin mRNA ([2]; normalised to GAPDH): 8.0-fold
- Differential Expression of Ubiquitin mRNA ([2]; normalised to GAPDH): 1.7-fold
- mesangial cell CTGF expression compared with high glucose ([1]; 25 mM mannitol + 5 mM glucose versus 30 mM glucose, in vitro): less mesangial cell CTGF expression in vitro than high glucose

Molecule: TGF-β1: human recombinant transforming growth factor β1 (Calbiochem)
- induction of CTGF mRNA levels ([1]; TGF-β1 10 ng/ml, 24 hr, serum starved mesangial cells): potent inducer
- gremlin mRNA levels [3]: augmented

B1: rhCTGF: recombinant human connective tissue growth factor protein (protein, UniProt P29279 27-349, looked up)
CCN family member 2: QNCSGPCRCPDEPAPRCPAGVSLVLDGCGCCRVCAKQLGELCTERDPCDPHKGLFCHFGSPANRKIGVCTAKDGAPCIFGGTVYRSGESFQSSCKYQCTCLDGAVGCMPLCSMDVRLPSPDCPFPRRVKLPGKCCEEWVCDEPKDQTVVGPALAAYRLEDTFGPDPTMIRANCLVQTTEWSACSKTCGMGISTRVTNDNASCRLEKQSRLCMVRPCEADLEENIKKGKKCIRTPKISKPIKFELSGCTSMKTYRAKFCGVCTDGRCCTPHRTTTLPVEFKCPDGEVMKKNMMFIKTCACHYNCPGDNDIFESLYYRKMYGDMA
- mesangial cell collagens I and IV and fibronectin mRNA (RT-PCR) [4]: up-regulates
